ChEMBL document CHEMBL1201862, “PubChem BioAssay data set” (2004)
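96-well plates; 48 h exposure; 5 concentrations. Endpoints by linear interpolation between flanking doses. Not reached: highest tested concentration assigned. Abbreviation: GI50, concentration required for 50% inhibition of growth.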 Activity calls are given as the source filed them. Rule as the data show it: active = GI50 up to about 1.1 µM and inactive = higher.

Key:
Test in all cases: NCI anticancer screen, dose series, 48 h
HCT-116 = system: HCT-116
HCT-15 = system: HCT-15
SNB-75 = system: SNB-75
UACC-257 = system: UACC-257
SW-620 = system: SW-620
NCI-H522 = system: NCI-H522
MDA-MB-231 = system: MDA-MB-231
SNB-19 = system: SNB-19
SK-OV-3 = system: SK-OV-3
T47D = system: T47D
SK-MEL-28 = system: SK-MEL-28
SF-539 = system: SF-539
NCI-H23 = system: NCI-H23
EKVX = system: EKVX
OVCAR-3 = system: OVCAR-3
IGROV-1 = system: IGROV-1
SF-268 = system: SF-268
HOP-62 = system: HOP-62
BT-549 = system: BT-549
CAKI-1 = system: CAKI-1
OVCAR-4 = system: OVCAR-4
SF-295 = system: SF-295
SN12C = system: SN12C
U-251 = system: U-251
SK-MEL-2 = system: SK-MEL-2
NCI/ADR-RES = system: NCI/ADR-RES
NCI-H460 = system: NCI-H460
HT-29 = system: HT-29
MDA-MB-435 = system: MDA-MB-435
KM12 = system: KM12
HL-60 = system: HL-60
MCF7 = system: MCF7
PC-3 = system: PC-3
SR = system: SR
TK-10 = system: TK-10
A498 = system: A498
A549 = system: A549
Malme-3M = system: Malme-3M
RXF 393 = system: RXF 393
CCRF-CEM = system: CCRF-CEM
SK-MEL-5 = system: SK-MEL-5
MOLT-4 = system: MOLT-4
786-0 = system: 786-0
MDA-N = system: MDA-N
NCI-H226 = system: NCI-H226
ACHN = system: ACHN
LOX IMVI = system: LOX IMVI
DU-145 = system: DU-145
M14 = system: M14
UO-31 = system: UO-31
OVCAR-8 = system: OVCAR-8
OVCAR-5 = system: OVCAR-5
K562 = system: K562
COLO 205 = system: COLO 205
Hs-578T = system: Hs-578T
RPMI-8226 = system: RPMI-8226
HOP-92 = system: HOP-92
UACC-62 = system: UACC-62
HCC 2998 = system: HCC 2998

Structure (SMILES): OC(COc1cccc2ccccc12)CN1CCOCC1 (stereo not drawn)
- GI50 (HCT-116): > 100 µM (inactive)
- GI50 (HCT-15): > 100 µM
- GI50 (SNB-75): > 100 µM (inactive)
- GI50 (UACC-257): > 100 µM (inactive)
- GI50 (SW-620): > 100 µM (inactive)
- GI50 (NCI-H522): 54 µM (inactive)
- GI50 (MDA-MB-231): > 100 µM (inactive)
- GI50 (SNB-19): > 100 µM (inactive)
- GI50 (SK-OV-3): > 100 µM (inactive)
- GI50 (T47D): > 100 µM (inactive)
- GI50 (SK-MEL-28): > 100 µM (inactive)
- GI50 (SF-539): > 100 µM (inactive)
- GI50 (NCI-H23): > 100 µM (inactive)
- GI50 (EKVX): 95.1 µM (inactive)
- GI50 (OVCAR-3): > 100 µM (inactive)
- GI50 (IGROV-1): 39.9 µM (inactive)
- GI50 (SF-268): > 100 µM (inactive)
- GI50 (HOP-62): > 100 µM (inactive)
- GI50 (BT-549): > 100 µM (inactive)
- GI50 (CAKI-1): > 100 µM (inactive)
- GI50 (OVCAR-4): > 100 µM (inactive)
- GI50 (SF-295): > 100 µM (inactive)
- GI50 (SN12C): > 100 µM (inactive)
- GI50 (U-251): > 100 µM (inactive)
- GI50 (SK-MEL-2): > 100 µM (inactive)
- GI50 (NCI/ADR-RES): > 100 µM (inactive)
- GI50 (NCI-H460): > 100 µM (inactive)
- GI50 (HT-29): > 100 µM (inactive)
- GI50 (MDA-MB-435): > 100 µM (inactive)
- GI50 (KM12): > 100 µM (inactive)
- GI50 (HL-60): > 100 µM (inactive)
- GI50 (MCF7): > 100 µM (inactive)
- GI50 (PC-3): > 100 µM (inactive)
- GI50 (SR): > 100 µM (inactive)
- GI50 (TK-10): > 100 µM (inactive)
- GI50 (A498): > 100 µM (inactive)
- GI50 (A549): > 100 µM (inactive)
- GI50 (Malme-3M): > 100 µM (inactive)
- GI50 (RXF 393): > 100 µM (inactive)
- GI50 (CCRF-CEM): > 100 µM (inactive)
- GI50 (SK-MEL-5): > 100 µM (inactive)
- GI50 (MOLT-4): 44.6 µM (inactive)
- GI50 (786-0): > 100 µM (inactive)
- GI50 (MDA-N): > 100 µM (inactive)
- GI50 (NCI-H226): > 100 µM (inactive)
- GI50 (ACHN): > 100 µM (inactive)
- GI50 (LOX IMVI): > 100 µM (inactive)
- GI50 (DU-145): > 100 µM (inactive)
- GI50 (M14): > 100 µM (inactive)
- GI50 (UO-31): > 100 µM (inactive)
- GI50 (OVCAR-8): > 100 µM (inactive)
- GI50 (OVCAR-5): > 100 µM (inactive)
- GI50 (K562): > 100 µM (inactive)
- GI50 (COLO 205): > 100 µM (inactive)
- GI50 (Hs-578T): 75.5 µM (inactive)
- GI50 (RPMI-8226): > 100 µM (inactive)
- GI50 (HOP-92): 22.2 µM (inactive)
- GI50 (UACC-62): > 100 µM (inactive)
- GI50 (HCC 2998): > 100 µM (inactive)

Structure (SMILES): COc1ccc(/C=C2\CCC/C(=C\c3ccc(O)c(CN4CCCCC4)c3)C2=O)cc1
- GI50 (HCT-116): 2.82 µM (inactive)
- GI50 (HCT-15): 3.52 µM
- GI50 (SNB-75): 12.6 µM (inactive)
- GI50 (UACC-257): 4.76 µM (inactive)
- GI50 (SW-620): 3.33 µM (inactive)
- GI50 (NCI-H522): 2.96 µM (inactive)
- GI50 (MDA-MB-231): 4.09 µM (inactive)
- GI50 (SNB-19): 23.4 µM (inactive)
- GI50 (SK-OV-3): 22.3 µM (inactive)
- GI50 (T47D): 19.3 µM (inactive)
- GI50 (SK-MEL-28): 11.3 µM (inactive)
- GI50 (SF-539): 3.08 µM (inactive)
- GI50 (NCI-H23): 4.93 µM (inactive)
- GI50 (EKVX): 10 µM (inactive)
- GI50 (OVCAR-3): 10.8 µM (inactive)
- GI50 (IGROV-1): 4.7 µM (inactive)
- GI50 (SF-268): 3.31 µM (inactive)
- GI50 (HOP-62): 12.4 µM (inactive)
- GI50 (BT-549): 4.65 µM (inactive)
- GI50 (CAKI-1): 11.1 µM (inactive)
- GI50 (OVCAR-4): 22.2 µM (inactive)
- GI50 (SF-295): 6.95 µM (inactive)
- GI50 (SN12C): 4.76 µM (inactive)
- GI50 (U-251): 4.06 µM (inactive)
- GI50 (SK-MEL-2): 11.2 µM (inactive)
- GI50 (NCI/ADR-RES): 2.77 µM (inactive)
- GI50 (NCI-H460): 4.98 µM (inactive)
- GI50 (HT-29): 2.3 µM (inactive)
- GI50 (MDA-MB-435): 3.1 µM (inactive)
- GI50 (KM12): 2.3 µM (inactive)
- GI50 (HL-60): 6.93 µM (inactive)
- GI50 (MCF7): 3.73 µM (inactive)
- GI50 (PC-3): 4.74 µM (inactive)
- GI50 (SR): 1.35 µM (inactive)
- GI50 (TK-10): 5.77 µM (inactive)
- GI50 (A498): 9.57 µM (inactive)
- GI50 (A549): 8 µM (inactive)
- GI50 (Malme-3M): 11.5 µM (inactive)
- GI50 (RXF 393): 20.3 µM (inactive)
- GI50 (CCRF-CEM): 4.02 µM (inactive)
- GI50 (SK-MEL-5): 4.25 µM (inactive)
- GI50 (MOLT-4): 2.59 µM (inactive)
- GI50 (786-0): 4.17 µM (inactive)
- GI50 (MDA-N): 3.55 µM (inactive)
- GI50 (NCI-H226): 6.67 µM (inactive)
- GI50 (ACHN): 10.3 µM (inactive)
- GI50 (LOX IMVI): 2.82 µM (inactive)
- GI50 (DU-145): 9.02 µM (inactive)
- GI50 (M14): 4.06 µM (inactive)
- GI50 (UO-31): 6.75 µM (inactive)
- GI50 (OVCAR-8): 2.81 µM (inactive)
- GI50 (OVCAR-5): 22.5 µM (inactive)
- GI50 (K562): 3.96 µM (inactive)
- GI50 (COLO 205): 8.09 µM (inactive)
- GI50 (Hs-578T): 11.5 µM (inactive)
- GI50 (RPMI-8226): 3.89 µM (inactive)
- GI50 (HOP-92): 9.79 µM (inactive)
- GI50 (UACC-62): 3.9 µM (inactive)
- GI50 (HCC 2998): 5.45 µM (inactive)
